# Source: patent US10202371B2, “Oxazolidin-2-one-pyrimidine derivatives and the use thereof as phosphatidylinositol-3-kinase inhibitors” (Novartis AG, priority 2012, dated 2019)
# How the values were obtained:
# human mTOR (GST-mTOR) = human mTOR (GST-mTOR) (Homo sapiens (Human), UniProt P42345); test: Binding assay mTor (Lanthascreen kinase binding assay); settings: Tracer-314
# Excerpt: Catalytically active human PI3Kα, PI3Kβ, PI3Kδ, and mTOR were cloned, expressed and purtified as described (Maira S M, Stauffer F, Brueggen J, Furet P, Schnell C, Fritsch C, Brachmann S, Chène P, de Pover A, Schoemaker K, Fabbro D, Gabriel D, Simonen M, Murphy L, Finan P, Sellers W, Garcia-Echeverria C (2008), Mol Cancer Ther. 7:1851-63 and Maira S M, Pecchi S, Brueggen J, Huh K, Schnell C, Fritsch C, Nagel T, Wiesmann M, Brachmann S, Dorsch M, Chène P, Schoemaker K, De Pover A, Menezes D, Fabbro D, Sellers W, Garcia-Echeverria C, Voliva CF (2011), Mol. Cancer Ther. accepted).
# TR-FRET assays for protein kinases uses a long-lifetime lanthanide Terbium or Europium chelates as the donor species which overcome interference by compound autofluorescence or light scatter from precipitated compounds, by introducing a delay after excitation by a flashlamp excitation source. Results are often expressed as a ratio of the intensities of the acceptor and donor fluorophores. The ratiometric nature of such a value corrects for differences in assay volumes between wells, as well as corrects for quenching effects due to colored compounds.
# Binding Assays are based on the binding and displacement of an Alexa Fluor® 647-labeled, ATP-competitive kinase inhibitors to the kinase of interest. Invitrogen's “Kinase Tracers” have been developed to address a wide range of kinase targets and are based on ATP-competitive kinase inhibitors, making them suitable for detection of any compounds that bind to the ATP site or to an allosteric site altering the conformation of the ATP site. Inhibitors that bind the ATP site include both Type I kinase inhibitors, which bind solely to the ATP site, and Type II inhibitors (e.g., Gleevec®/Imatinib, Sorafenib, BIRB-796), which bind to both the ATP site and a hydrophobic site exposed in the DFG-out (non-active) conformation. […] The sole exception was a substrate-competitive compound, and thus not a true allosteric inhibitor.
# In contrast to most fluorescence-based kinase activity assays, LanthaScreen® Eu^3+ Kinase Binding Assays can be read continuously, which facilitates evaluation of compounds with slow binding kinetics. Also, unlike most activity assays, binding assays can be performed using either active or non-activated kinase preparations, which enables characterization of compounds that bind preferentially to non-activated kinases, such as Gleevec®/imatinib and some allosteric inhibitors.
# In the Lanthascreen™ kinase binding assay, the donor (Eu^3+-anti-GST antibody) is excited at 340 nm and will transfer its energy to the acceptor (Alexa Fluor® 647-labeled ATP-competitive kinase inhibitor=Tracer-314). The emission from the Tracer-314 (Alexa Fluor® 647 inhibitor) can be monitored with a filter centered at 665 nm because it is located between the emission peaks of the donor, which is measured at 615/620 nm. The binding of both, the Tracer-314 and Eu^3+-anti-GST antibody, to the kinase results in a high degree of FRET from the Eu^3+-donor fluorophore to the Alexa-Fluor® 647-acceptor fluorophore on the Tracer-314. Binding of an inhibitor to the kinase competes for binding with the tracer, resulting in a loss of FRET.
# 50 nL of compound dilutions were dispensed onto white 384-well small volume polystyrene plate as described in section 2.2. Then 5 μL of GST-mTOR and Europium-anti-GST antibody followed by 5 μL of tracer-314 (final assay volume 10 μL) are incubated at RT. The standard reaction buffer for the Lanthascreen™ kinase binding assay contained 50 mM HEPES pH 7.5, 5 mM MgCl2, 1 mM EGTA, 0.01% Pluronic F-127. Plates are read 60 mins later in a Synergy2 reader using an integration time of 0.2 microseconds and a delay of 0.1 microseconds.
# To calculate the emission ratio, the signal emitted at 665 nm from the acceptor (Alexa Fluor® 647-labeled Tracer-314) is divided by the signal emitted at 620 nm from the donor (Eu^3+ anti-GST antibody) […]
# PI3Kgamma = PI3Kgamma (Homo sapiens (Human), UniProt P48736); test: Biochemical assay PI3Kgamma (Adapta TR-FRET); settings: read-out: PI3Kg/IC50
# Chain of PI3Kgamma (P48736 whole entry, species assumed): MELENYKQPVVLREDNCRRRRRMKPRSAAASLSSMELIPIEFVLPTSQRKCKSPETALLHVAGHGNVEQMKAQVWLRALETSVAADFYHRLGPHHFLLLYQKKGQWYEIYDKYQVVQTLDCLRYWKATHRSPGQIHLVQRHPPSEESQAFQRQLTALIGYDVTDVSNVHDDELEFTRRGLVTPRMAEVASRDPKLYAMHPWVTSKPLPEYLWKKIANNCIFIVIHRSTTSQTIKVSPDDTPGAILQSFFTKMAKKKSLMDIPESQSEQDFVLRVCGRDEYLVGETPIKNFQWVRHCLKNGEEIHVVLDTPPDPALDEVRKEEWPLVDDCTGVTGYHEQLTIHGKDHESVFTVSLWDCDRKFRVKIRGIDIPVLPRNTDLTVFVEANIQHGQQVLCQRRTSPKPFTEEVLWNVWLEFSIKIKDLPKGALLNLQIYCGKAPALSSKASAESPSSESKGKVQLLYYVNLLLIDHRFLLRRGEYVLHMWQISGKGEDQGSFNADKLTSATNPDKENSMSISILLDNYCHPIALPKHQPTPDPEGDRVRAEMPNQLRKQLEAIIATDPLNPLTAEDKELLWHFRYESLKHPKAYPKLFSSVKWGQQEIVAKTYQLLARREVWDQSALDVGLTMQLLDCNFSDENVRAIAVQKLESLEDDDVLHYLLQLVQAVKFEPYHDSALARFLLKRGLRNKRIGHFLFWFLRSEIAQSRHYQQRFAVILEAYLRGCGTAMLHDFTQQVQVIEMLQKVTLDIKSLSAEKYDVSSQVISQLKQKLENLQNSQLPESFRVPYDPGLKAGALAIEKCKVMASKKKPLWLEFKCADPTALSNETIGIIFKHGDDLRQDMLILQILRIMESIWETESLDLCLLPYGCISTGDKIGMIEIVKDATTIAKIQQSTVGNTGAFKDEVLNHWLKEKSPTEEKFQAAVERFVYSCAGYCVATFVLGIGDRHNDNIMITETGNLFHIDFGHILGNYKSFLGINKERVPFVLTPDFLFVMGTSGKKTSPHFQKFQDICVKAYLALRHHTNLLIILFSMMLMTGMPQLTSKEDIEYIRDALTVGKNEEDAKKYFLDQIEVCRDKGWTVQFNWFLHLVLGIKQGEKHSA
# Excerpt: The TR-FRET Adapta™ Universal Kinase Assay Kit was purchased from Invitrogen
# Corporation (Carlsbad/CA, USA) (Cat. No. PV5099). The kit contains the following reagents: Adapta Eu-anti-ADP Antibody (Europium labeled anti-ADP antibody in HEPES buffered saline, Cat. No. PV5097), Alexa Fluor® 647-labeled ADP tracer (Alexa Fluor® 647-labeled ADP tracer in HEPES buffered saline, Cat. No. PV5098), proprietary TR-FRET dilution buffer pH 7.5 (Cat. No. PV3574).
# PIK3CD substrate Phosphatidylinositol was obtained from Invitrogen (vesicules consisting of 2 mM PI in 50 mM HEPES pH7.5; Cat. No. PV5371).
# Time-Resolved Fluorescence Resonance Energy Transfer (TR-FRET) is a technology based on energy transfer between two adjacent dyes, from an excited electron in one dye (the donor) to an electron of an adjacent dye (the acceptor) through resonance, then released as a photon. This energy transfer is detected by an increase in the fluorescence emission of the acceptor, and a decrease in the fluorescence emission of the donor. TR-FRET assays for protein kinases use a long-lifetime lanthanide Terbium or Europium chelates as the donor species which overcome interference from compound autofluorescence or light scatter from precipitated compounds, by introducing a delay after excitation by a flashlamp excitation source. Results are often expressed as a ratio of the intensities of the acceptor and donor fluorophores. The ratiometric nature of such a value corrects for differences in assay volumes between wells, as well as corrects for quenching effects due to colored compounds. The Adapta™ assay can be divided into two phases: a kinase reaction phase and an ADP detection phase. In the kinase reaction phase, all kinase reaction components are added to the well and the reaction is allowed to incubate for a set period of time specific for each kinase. After the reaction, a detection solution of Eu-labeled anti-ADP antibody, Alexa Fluor® 647-labeled ADP tracer, and EDTA (to stop the kinase reaction) are added to the assay well. ADP formed by the kinase reaction will displace the Alexa Fluor® 647-labeled ADP tracer from the antibody, resulting in a decrease in TR-FRET signal. In the presence of an inhibitor, the amount of ADP formed by the kinase reaction is reduced, and the resulting intact antibody-tracer interaction maintains a high TR-FRET signal. In the Adapta™ assay, the donor (Europium-anti-ADP antibody) is excited at 340 nm and will transfer its energy to the acceptor (Alexa Fluor® 647-labeled ADP tracer). The emission from the Alexa Fluor® 647 can be monitored with a filter centered at 665 nm because it is located between the emission peaks of the donor, which is measured at 615/620 nm.
# 50 nL of compound dilutions were dispensed onto white 384-well small volume polystyrene plate as described in section 2.2. Then 5 μL of PI3Kg and PI3Kd and lipid substrate (PI or PIP2:PS) followed by 5 μL of ATP (final assay volume 10 μL) are incubated at RT. The standard reaction buffer for the Adapta™ TR-FRET assay contained 10 mM Tris-HCl pH 7.5, 3 mM MgCl2, 50 mM NaCl, 1 mM DTT, 0.05% CHAPS. Reactions were stopped with 5 μL of a mixture of EDTA containing the Eu-labeled anti-ADP antibody and the Alexa Fluor® 647-labeled ADP tracer in TR-FRET dilution buffer (proprietary to IVG). Plates are read 15 to 60 mins later in a Synergy2 reader using an integration time of 0.4 seconds and a delay of 0.05 seconds. […] The standard compound NVP-BGT226 was used as a reference compound and included in all assay plates in the form of 16 dilution points in duplicate.
# Data are analyzed using Excel fit software or Graphpad Prism. EC50 values were derived by fitting a sigmoidal dose-response curve to a plot of assay readout over inhibitor concentration. All fits were performed with the program XLfit4 (ID Business Solutions, Guildford, UK). […] All fits were performed with the program XLfit4 (ID Business Solutions, Guildford, UK).
# [1] = Photostability in light stability chamber; format: physicochemical; settings: 1.0 mg/ml in ethanol, 19620 kJ/m^2 over 13 h, 15° C., UPLC 254 nm
# Method: Samples investigated for light stability were treated in a light stability chamber (Atlas CPS+, Serial Number 0704013). Solutions of 1.0 mg/ml in ethanol were prepared for each molecule and aliquots of 0.5 mL were dispensed into suitable micro tubes. All measurements were done in duplicate and compared to a reference wrapped in aluminium foil during light exposure. Solutions were exposed to 19620 kJ/m^2 over 13 h. Samples were kept at 15° C. during the experiment. […] The peak areas were automatically integrated, and the degradation percentage calculated as the difference between the corresponding peak area percentage of the reference sample and the average peak area percentage of the exposed samples (duplicate).
Compound,IC50 (human mTOR (GST-mTOR)),IC50 (PI3Kgamma),% degradation in photostability assay (average) [1]
CC[C@H]1[C@H](c2cccc(OC)c2)OC(=O)N1c1cc(-c2cnc(N)nc2C(F)(F)F)nc(N2CCOCC2)n1 [Example 6],4.7 µM,7 µM,0%
CC[C@H]1[C@@H](c2ccccc2)OC(=O)N1c1cc(-c2cnc(N)nc2C(F)(F)F)nc(N2CCOCC2)n1 [Example 4],–,4.5 µM,–
